Experimental findings from paper PMC6928678, “Simplified Head-to-Tail Cyclic Polypeptides as Biomaterial-Associated Antimicrobials with Endotoxin Neutralizing and Anti-Inflammatory Capabilities” (International Journal of Molecular Sciences, 2019) are described below.

Where a SMILES comes first, the peptide text is derived from it. [ ]: non-standard residue; d: D form. Orn = NCCC[C@H](N)C(=O)O

One data set deals with E. coli UB1005. The experiment in a line: Outer membrane permeability assay (NPN uptake). It is filed as cell-based. To be noted: E. coli UB1005, concentrations greater than 4 μM; relative to 10 μg/mL polymyxin B. The protocol:
Figure 4 Outer membrane permeabilization assays of the engineered peptides. A 2 mL volume of E. coli UB1005 cells, diluted to 10^5 CFU/mL in 5 mM sodium HEPES buffer, was added to a quartz cuvette containing NPN to give a final concentration of 10 μM. Aliquots of peptides were added to the cuvette, and the fluorescence was recorded until there was no further increase in fluorescence. Data shown are three independent experiments.
The effect of antimicrobial peptides on the outer leaflet of the cell membrane was examined using the extracellular membrane-sensitive fluorescent dye NPN and the antibiotic-sensitive mutant E. coli UB 1005. […] The background fluorescence was measured (excitation λ = 350 nm, emission λ = 420 nm) with an F-4500 fluorescence spectrophotometer (Hitachi, Tokyo, Japan). […] The fluorescence was recorded in terms of the time needed until there was no further increase in fluorescence after mixing several concentrations (0.5–64 μM) of peptides. […] Values were converted to percent NPN uptake using the following equation:(3) %NPN uptake=Fobs−F0/F100−F0× 100% where Fobs is the observed fluorescence at a given peptide concentration, F0 is the initial fluorescence of NPN in E. coli UB1005 cells and F100 is the fluorescence of NPN in UB1005 cells upon the addition of 10 μg/mL polymyxin B, which had strong outer membrane permeability.

The test system of data set [1] is TNF-α production in RAW264.7 cells. The data set is described as follows: LPS-stimulated TNF-α production (ELISA). It is filed as cell-based, mouse. The method, then:
Figure 11 The inhibitory effects of OIR3, IR3, DIR3 and GS on LPS-stimulated TNF-α production in RAW264.7 cells. The levels of TNF-α in the […] were determined by ELISA using a commercial kit for mouse TNF-α. Data shown are the mean ± SD of three independent experiments.
LPS-activated inflammatory responses are always accompanied by the production of inflammatory cytokines, such as tumor necrosis factor-alpha (TNF-α). Briefly, 2 × 10^5 cells/well RAW264.7 cells were plated in 96-well plates and stimulated with LPS (100 ng/mL) in the absence or presence of the peptides (1–32 μM) for 18 h at 37 °C. The levels of TNF-α were determined using an ELISA kit (Boster, Wuhan, China) in accordance with the manufacturer’s instructions. TNF-α was measured by determining the absorbance at 540 nm.
On the technique in general: In an ELISA, binding on a coated surface is turned into a signal by an enzyme label.

The subject of another data set is RAW264.7 cells. The experiment in a line: MTT cytotoxicity assay. To be noted: 0.5–128 μM, 24 h. It is filed as cell-based, mouse. The protocol:
Figure 2 (A) Hemolytic activity of the engineered peptides against human red blood cells (hRBCs). The hRBCs were incubated with equal amounts of the respective peptides dissolved in PBS for 1 h at 37 °C. (B) Cytotoxicity of the engineered peptides against RAW264.7. The cells were incubated with various concentrations (0.5–128 μM) of peptides for 24 h, and the cell viability was determined by the MTT assay. Data shown are three independent experiments.
The MTT (3-[4, 5 dimethylthiozol-2-yl]-2,5-diphenyltetrazolium bromide) assay was conducted according to a previously reported MTT colorimetric method, and is used as a cell proliferation and cell viability assay. Mouse macrophage RAW264.7 cell lines stored in liquid nitrogen were recovered and cultured in a fully humidified atmosphere with 95% air and 5% CO2 at 37 °C. The cells were then diluted, added to 96-well plates at a final concentration of 2 × 10^5 cells/well, and cultured in RPMI 1640 medium at 37 °C overnight. The next day, peptides were added to the cell cultures at final concentrations of 0.5–128 μM, and untreated cell cultures serving as controls were cultured for 20–24 h in the same conditions. […] 150 μL of DMSO was added to dissolve the formazan crystals, and the OD was measured using a microplate reader (Tecan GENios F129004, Salzburg, Austria) at 570 nm. […]
For orientation: Formazan colour is commonly taken as a measure of viable cells.

`CC[C@H](C)[C@@H]1NC(=O)[C@H](CCCNC(=N)N)NC(=O)[C@H]([C@@H](C)CC)NC(=O)[C@@H]2CCCN2C(=O)[C@H](CCCNC(=N)N)NC(=O)[C@H]([C@@H](C)CC)NC(=O)[C@H](CCCNC(=N)N)NC(=O)[C@H]([C@@H](C)CC)NC(=O)[C@H](CCCNC(=N)N)NC(=O)[C@H]([C@@H](C)CC)NC(=O)[C@@H]2CCCN2C(=O)[C@H](CCCNC(=N)N)NC(=O)[C@H]([C@@H](C)CC)NC(=O)[C@H](CCCNC(=N)N)NC1=O` [OIR3] (cyclo(IRIRIRPIRIRIRP)): the “outer membrane permeability (% NPN uptake)” value with E. coli UB1005 was “more than 70%”. For the same compound, the “inhibition of LPS-stimulated TNF-α expression” value in data set [1] is given as “more strongly inhibited”.

With `CC(C)C[C@@H]1NC(=O)[C@H](CCCN)NC(=O)[C@H](C(C)C)NC(=O)[C@@H]2CCCN2C(=O)[C@@H](Cc2ccccc2)NC(=O)[C@H](CC(C)C)NC(=O)[C@H](CCCN)NC(=O)[C@H](C(C)C)NC(=O)[C@@H]2CCCN2C(=O)[C@@H](Cc2ccccc2)NC1=O` [GS, gramicidin S, reference compound] (cyclo(V[Orn]L[dF]PV[Orn]L[dF]P)), the “toxicity towards mammalian cells (RAW264.7)” value with RAW264.7 cells is given as “highly toxic”.
